Reference: PubChem BioAssay (NCI)
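Growth conditions: 96-well plates. Treatment: test compound, 48 hours, 5 concentrations. Analysis: linear interpolation between bracketing concentrations; unreached endpoints set to highest concentration. TGI marks complete inhibition of growth.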

Columns and labels:
Test in all cases: NCI-60 cell line screen, 48 h
[1] = test system: DLD-1 colon
[2] = test system: DMS 114 small cell lung
[3] = test system: DMS 273 small cell lung
[4] = test system: HCC-2998 colon
[5] = test system: HOP-18 NSCLC
[6] = test system: K-562 leukemia
[7] = test system: KM20L2 colon
[8] = test system: LXFL 529 NSCLC
[9] = test system: M19-MEL melanoma
[10] = test system: RXF-631 renal
[11] = test system: SNB-78 CNS
[12] = test system: XF 498 CNS

Compound	TGI [1] [µM]	TGI [2] [µM]	TGI [3] [µM]	TGI [4] [µM]	TGI [5] [µM]	TGI [6] [µM]	TGI [7] [µM]	TGI [8] [µM]	TGI [9] [µM]	TGI [10] [µM]	TGI [11] [µM]	TGI [12] [µM]
C=CN1C(=O)OC[C@@H]1c1ccccc1	> 100	> 100	50.7	> 100	> 100	> 100	> 100	> 100	> 100	> 100	> 100	> 100
Cc1cccc(NC(=O)c2cc3cc(N=Nc4ccccc4Cl)ccc3oc2=O)c1	> 100	66.8	> 100	70.4	> 100	> 100	> 100	> 100	> 100	> 100	> 100	64.5
CCC(CC)n1cc(C(=O)NC(=O)NCCCCCOC(=O)CCCCCCCCCCC(=O)OCCCCCNC(=O)NC(=O)c2cn(C(CC)CC)c(=O)[nH]c2=O)c(=O)[nH]c1=O	> 100	> 100	> 100	> 100	> 100	> 100	> 100	> 100	> 100	> 100	> 100	> 100
